Assay [1] concerns T1, Escherichia coli BAA-2469™.
T1 construct: ATCC BAA-2469
As to the kind of experiment: microbe, parasite or virus in culture. The arrangement: species or system clinical isolates of E. coli and K. pneumoniae. Particulars: Escherichia coli, BAA2469; inhibitor alone; read-out: MIC APC24-7. Here is the method:
(§1) MICs for clinical isolates were determined in a broth microdilution assay according to Clinical and Laboratory Standards Institute (CLSI) ([75]), using cation-adjusted Mueller-Hinton broth (Thermo Fisher Scientific, Lenexa, USA). The direct colony suspension method was utilized by preparing an inoculum of an OD600 0.17, except for E. coli #36 in which 0.10 was used, which equated to a concentration of 10^8 colony-forming units (CFU) per mL. Inoculum controls were included for all assays ([76]). […] Subsequently, we aimed to identify a potent β-lactam/APC24-7 combination capable of reversing β-lactamase-mediated BL resistance in our clinical isolates. All 16 isolates were exposed to increasing concentrations of meropenem (carbapenem), aztreonam (monobactam), ceftazidime and cefepime (cephalosporins), as well as amoxicillin (penicillin), both in the absence and presence of 57 µM (32 mg/L) of APC24-7. The effectiveness of these combinations was assessed based on their ability to resensitize the clinical isolates according to the clinical breakpoints (EUCAST clinical breakpoint table version 15.0, www.eucast.org).

In assay [2] the test system is T2, Klebsiella pneumoniae K46-62.
T2 construct: K46-62
The assay can be described thus: microbe, parasite or virus in culture. Also noted: species or system clinical isolates of E. coli and K. pneumoniae. The conditions noted are these: Klebsiella pneumoniae, K4662; inhibitor alone; read-out: MIC APC24-7. Here is the method:
as §1

Assay [3] deals with T3, Klebsiella pneumoniae BAA1705™.
T3 construct: ATCC BAA-1705
As to the kind of experiment: microbe, parasite or virus in culture. Particulars: Klebsiella pneumoniae, BAA1705; inhibitor alone; read-out: MIC APC24-7. Also noted: species or system clinical isolates of E. coli and K. pneumoniae. Here is the method:
as §1

The test system of assay [4] is T4, Klebsiella pneumoniae BAA-2146™.
T4 construct: ATCC BAA-2146
As to the kind of experiment: microbe, parasite or virus in culture. The arrangement: species or system clinical isolates of E. coli and K. pneumoniae. Particulars: Klebsiella pneumoniae, BAA2146; inhibitor alone; read-out: MIC APC24-7. Here is the method: as §1

The next assay concerns the target OXA-48 (Klebsiella pneumoniae, UniProt Q6XEC0). The assay can be described thus: biochemical. Also noted: Residual beta-lactamase activity; meropenem (NDM-1, 300 nm) or nitrocefin (others, 480 nm) hydrolysis, 1 uM Zn2+ (OXA-48: bicarbonate). The protocol:
(§2) IC50 determination with purified enzymes was performed as previously described ([40]). In brief, enzymes were diluted in 50 mM HEPES, pH 7.5, supplemented with 1 µM Zn^2+. For OXA-48, 50 mM HEPES, pH 7.5, was supplemented with 50 mM sodium bicarbonate buffer solution (Sigma Aldrich). Enzymes and inhibitors were mixed at various inhibitor concentrations, and absorbance was measured by spectrophotometry (Table S5). For NDM-1 and MBP-NDM-9, the hydrolysis of meropenem (24 µM) was monitored at 300 nm using UV- transparent 96-well plates (Corning, Kennebunk, ME). For all other enzymes, nitrocefin (24 µM, Millipore Sigma, USA) hydrolysis was monitored at 480 nm. The residual enzyme activity at various inhibitor concentrations was calculated in comparison to the initial reaction velocity of the inhibitor-free […] control. Dose-response curves were fitted using nonlinear regression in GraphPad Prism v. 10.5.0. All tests were performed at least in duplicates at 25°C.

The target in a further assay is VIM-7 (Pseudomonas aeruginosa, UniProt Q840P9). As to the kind of experiment: biochemical. The arrangement: Residual beta-lactamase activity; meropenem (NDM-1, 300 nm) or nitrocefin (others, 480 nm) hydrolysis, 1 uM Zn2+ (OXA-48: bicarbonate). Here is the method: as §2
Chain of VIM-7 (Q840P9 18-265): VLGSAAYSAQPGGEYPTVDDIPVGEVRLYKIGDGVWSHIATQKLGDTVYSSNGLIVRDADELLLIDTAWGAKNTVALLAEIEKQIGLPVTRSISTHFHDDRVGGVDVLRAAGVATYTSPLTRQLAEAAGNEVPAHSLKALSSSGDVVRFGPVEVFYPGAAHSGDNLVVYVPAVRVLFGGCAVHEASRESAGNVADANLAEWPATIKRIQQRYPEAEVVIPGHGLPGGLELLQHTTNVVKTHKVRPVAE
Another assay has as its target T5, NDM-1 (Klebsiella pneumoniae, UniProt C7C422).
T5 construct: gene blaNDM-1
The assay can be described thus: biochemical. Also noted: Residual beta-lactamase activity; meropenem (NDM-1, 300 nm) or nitrocefin (others, 480 nm) hydrolysis, 1 uM Zn2+ (OXA-48: bicarbonate). Here is the method:
as §2

In another assay the test system is T6, Escherichia coli MP32-64.
T6 construct: MP32-64
As to the kind of experiment: microbe, parasite or virus in culture. Also noted: species or system E. coli E. cloni 10G; Microdilution MIC of inhibitor alone in LB, OD600 read-out, E. coli 10G without or with empty vector. Particulars: MP3264, inhibitor alone, read-out: MIC APC24-7. The protocol: (§3) Susceptibility testing of isogenic E. coli E. cloni 10G (Table 2) was determined by both the microdilution assay. […] Overnight cultures were prepared in LB supplemented with 25 mg/L chloramphenicol at 37°C under shaking at 700 rpm. The overnight cultures were diluted in PBS to 10^6 CFU/ mL, followed by inoculation in LB to ~10^5 CFU in 384-well plates (VWR, Radnor, PA, USA). Plates were prepared with twofold increasing concentrations of meropenem and cefepime ([…], respectively) to a total inoculated volume of 100 µL Plates were incubated at 37°C without shaking for 19–21 h. OD600 was determined in a SpectraMax Plus plate reader (Molecular Devices).

The subject of a further assay is T7, Escherichia coli MP21-05.
T7 construct: MP21-05
The assay can be described thus: microbe, parasite or virus in culture. Also noted: species or system E. coli E. cloni 10G; Microdilution MIC of inhibitor alone in LB, OD600 read-out, E. coli 10G without or with empty vector. Particulars: MP2105, inhibitor alone, read-out: MIC APC24-7. Here is the method:
as §3

Another assay has as its target T8, VIM-2 (Pseudomonas aeruginosa, UniProt Q9K2N0).
T8 construct: gene blaVIM-2
The arrangement: Residual beta-lactamase activity; meropenem (NDM-1, 300 nm) or nitrocefin (others, 480 nm) hydrolysis, 1 uM Zn2+ (OXA-48: bicarbonate). The conditions noted are these: inhibitor. Here is the method:
as §2

What is called IC50 is the point on the concentration scale where inhibition reaches its midpoint.

T5 sequence (C7C422 29-270 limits assumed): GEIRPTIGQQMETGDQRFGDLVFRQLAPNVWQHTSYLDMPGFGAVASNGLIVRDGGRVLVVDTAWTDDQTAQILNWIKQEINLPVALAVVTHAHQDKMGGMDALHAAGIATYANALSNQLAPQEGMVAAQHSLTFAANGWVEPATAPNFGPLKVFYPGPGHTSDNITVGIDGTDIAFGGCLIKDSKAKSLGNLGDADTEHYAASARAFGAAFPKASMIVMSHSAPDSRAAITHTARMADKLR
Chain of OXA-48 (Q6XEC0 23-265 limits assumed): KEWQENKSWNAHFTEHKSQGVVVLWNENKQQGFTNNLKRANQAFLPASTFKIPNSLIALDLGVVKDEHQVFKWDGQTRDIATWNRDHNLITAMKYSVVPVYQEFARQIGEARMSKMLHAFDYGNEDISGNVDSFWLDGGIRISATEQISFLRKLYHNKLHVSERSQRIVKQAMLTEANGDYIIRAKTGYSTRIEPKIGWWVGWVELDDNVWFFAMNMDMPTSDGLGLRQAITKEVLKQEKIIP

Turning to `O=C(N[C@H]1Cc2cccc(C(=O)O)c2OB1O)c1ccc(CNCCN(Cc2ccccn2)Cc2ccccn2)cc1` [APC24-7], the MIC (in assay [1]; in assay [2]; in assay [3]; in assay [4]; with Escherichia coli MP32-64; with Escherichia coli MP21-05) was above 906 µM each time. Besides, the IC50 came to 420 nM at OXA-48, 1080 nM at VIM-7, 140 nM at NDM-1 and 110 nM at VIM-2.
